Assay results published in patent US20130023491A1, “BETA-CELL REPLICATION PROMOTING COMPOUNDS AND METHODS OF THEIR USE” (President and Fellows of Harvard College, priority 2009, published 2013).
Entries after “also recorded” stand apart in the source; their conditions may differ. Like-named read-outs stand apart in the source and are kept apart here.

Key:
[1] = system: β-cells (dispersed rat islet cells); test: primary islet β-cell replication assay (PDX-1/ki-67 co-staining, automated imaging); type: cell-based; settings: for EC50: Rattus norvegicus; for increase of β-cell replication: 24 h, 5-IT 2 μM, GLP-1 and Ex-4 20 nM and 4 nM, normalized to DMSO
Description: Rat islets were isolated as previously described in Gotoh M, Maki T, Kiyoizumi T, Satomi S, Monaco A P: An improved method for isolation of mouse pancreatic islets. Transplantation 40:437-438, 1985, contents of which are herein incorporated by reference in their entirety. Isolated islets were cultured overnight in a tissue culture incubator. The following morning, islets were trypsinized into cellular clusters of 1-3 cells, re-suspended in islet media (Mediatech 99-786-CV; 10% FBS serum (Valley Biomedial BS3033); 8.3 mM Glucose (Sigma G7528); 1× Penicillin/Streptomycin (Invitrogen 15070-063); 1× Glutamax (Invitrogen 35050-079)) and plated into the wells of a 96-well plate (Sigma CLS3904) that had been coated with 804G (a rat bladder carcinoma cell line) conditioned media. The cellular plating density was 60 k cells/well and greater than 95% viability was confirmed at the time of plating. […] For screening, compounds were tested at 1 uM concentration in duplicate. After 24-hours of compound treatment, cells were fixed with fresh 4% PFA (Electron Microscopy Services 15710) for 20 minutes and washed with PBS (VWR 45000-446). Antigen retrieval was performed by heating the cells to 90 degrees Celsius in 0.1 mM EDTA (Ambion AM9260G) in PBS. Cells were then washed and permeabalized with PBS/0.3% Triton X-100 (J.T.Baker X198-07) for 15 minutes. Immunocytochemical staining was then performed as follows. Antigen blocking was performed with 5% normal donkey serum (Jackson ImmunoResearch 017-000-121) in PBS for an hour. Staining was performed by overnight incubation with primary antibody at 4 degrees Celsius. For the primary screen, PDX-1 antibody (R&D AF2419) was used to reveal beta-cells and ki-67 antibody (BD Bioscience 556003) to visualize proliferating cells. Without wishing to be bound by theory, the failure of prior beta-cell replication screens is primarily a consequence of using a cytoplasmic marker (Insulin) as the β-cell identifier. The use of a cytoplasmic marker prevents accurate attribution of nuclear replication to a specific cell identity i.e., in dense culture it is impossible to attribute a cytoplasm to a specific nucleus given the proximity to multiple nuclei. Additional Immunohistochemistry antibodies included Phosphohistone 3 (Millipore 06-570), Insulin (Dako A0564), Glucagon (Millipore 4031-01F) and Vimentin (Millipore ab5733). For western blotting anti-bodies included ADK (Abcam ab38010, ab64825) and RAN (BD Bioscience 610340) as a loading control.
Once compound-treated islet cells were stained, β-cell replication was assessed via automated image acquisition and analysis using a Cellomics ArrayScanVTI. The acquisition thresholds/parameters were established such that the computer-based calls of replication events were consistent with human-based calls. The parameters used were directed at the identification of (1) PDX-1+ cells and (2) ki-67 positive staining within the PDX-1 positive area. The algorithm was a three step process. First the nuclear area was predicted by the software based upon the expected PDX-1 staining pattern. Second PDX-1 positive cells (selected objects) were counted based upon the average staining intensity within the predicted nuclear area (Note: total signal intensity was essentially equal in quality but was not typically used). Third, the number of PDX-1 positive cells (selected objects) that simultaneously were Ki-67 positive was determined by determining the average fluorescence intensity of ki-67 staining within the predicted nuclear area (again, total intensity was also occasionally used with equal efficacy). The specific thresholds (fluorescence intensities) varied from experiment to experiment. In general, the basal replication rate was set at roughly 1% i.e., the algorithm was varied until 1% of DMSO treated PDX+ cells were reported to be double positive for PDX-1 and ki67. […]

islet β-cells = test: in vivo β-cell replication (BRDU incorporation); parameters: species or system mouse; settings: mice
Text: 24-hours post treatment, animals were sacrificed and the pancreas was fixed, sectioned and stained for PDX-1 and BRDU (Amaersham RPN202). Every fourth section was included in analysis and a minimum of 2000 PDX-1^+ per animal were counted.
(§1) A minority of these cells were not exocrine cells. […] Dividing cells were BRDU^+ (Amaersham RPN202).

porcine β-cells = test: porcine islet β-cell replication (PDX-1/ki-67); type: cell-based; settings: FIG. 13b bottom
Description: (§2) Rat and mouse islets were isolated as previously described. (M. Gotoh, et al., Transplantation 43, 725-730 (1987)) All animal work was approved and carried out in accordance with our institutional animal care and use committee. Porcine islets were provided by VitaCyte (Indianapolis, Id.). Islets were incubated (37° C., 5% CO2) overnight in islet media (Mediatech 99-786-CV; 10% FBS serum (Valley Biomedial BS3033); 8.3 mM Glucose (Sigma G7528); 1× Penicillin/Streptomycin (Invitrogen 15070-063); 1× Glutamax (Invitrogen 35050-079)). The following morning, islets were trypsinized into cellular clusters of 1-3 cells, re-suspended in islet media and plated into the wells of a 96-well plate (Sigma CLS3904) that had been coated with 804G (a rat bladder carcinoma cell line) conditioned media. The cellular plating density was 60 k cells/well and greater than 95% viability was confirmed at the time of plating. The islet cells were allowed 48-hours to adhere at which time the media was changed (as above, except 2% serum, 5 mM glucose) and the cells were compound treated. For screening, compounds were tested at 1 μM and 10 μM concentrations in duplicate on a single occasion. After 24-hours of compound treatment, cells were fixed with fresh 4% PFA. Antigen retrieval was performed by heating the cells to 90 degrees Celsius in 0.1 M EDTA in distilled water. […]

exocrine cells = test: in vivo exocrine cell replication (BRDU incorporation); parameters: species or system mouse; settings: mice, 21 mg/kg, 24 h
Text: as §1

[2] = compared to 5-IT; Zheng et al. 2001; cited from earlier work
murine β-cells = test: murine islet β-cell replication (PDX-1/ki-67); type: cell-based, mouse; settings: FIG. 13b top
Description: as §2

Nc1ncnc2c1c(I)cn2[C@H]1CC[C@@H](CO)O1 [7-Iodo-2,3-dideoxy-7-deazadenosine, 7-deaza-7-iodo-2′,3′-dideoxyadenosine]
β-cell replication after treatment with additional ADK-Is ([1]; FIG. 17b, 7-Iodo-2,3-dideoxy-7-deazadenosine 20 μM, 10 μM, Aristeromycin 6 μM, 1 μM): increased

Nc1ncnc2nc(-c3ccc(N4CCOCC4)nc3)cc(-c3cccc(Br)c3)c12 [ABT-702, 5-(3-bromophenyl)-7-(6-morpholinopyridin-3-yl)pyrido[2,3-d]pyrimidin-4-amine]
in vivo β-cell replication rate, β-cells identified by insulin immunostaining (islet β-cells; separate cohort, FIG. 20): increases
increase in BRDU incorporation by β-cells in vivo (PDX-1 identified) (islet β-cells; single intraperitoneal injection, 21 mg/kg, 24 h): 2 fold
% of Ki-67 positive β-cells (PDX-1 and Ki-67 positive cells), dose curve ([1]; A10 0.019-10 uM, B8 0.23-30 uM): increased in a dose dependent manner
EC50 ([1]; FIG. 13c dose-response curves, read-out: EC50, β-cell proliferation in rat islet cultures): 7 µM
EC50 ([1]; dose curves FIG. 2a (A10) and FIG. 3 (B8), Ki-67 positive β-cells, read-out: EC50 for β-cell proliferation): 9.1 µM
induction of β-cell replication, porcine islet cells (porcine β-cells): induction of β-cell replication similar to that observed for rat islet cells
in vivo replication rate of exocrine cells (exocrine cells): did not increase
half-life [2]: longer half-life compared to 5-IT
induction of β-cell replication, murine islet cells (murine β-cells): induction of β-cell replication similar to that observed for rat islet cells

NC(=O)c1ncn([C@@H]2O[C@H](CO)[C@@H](O)[C@H]2O)c1N [AICAR, 5-aminoimidazole-4-carboxamide ribonucleoside]
% β-cell replication ([1]; AICAR 3.3 μM): increase

c1cc(-c2cnn3cc(-c4ccc(OCCN5CCCCC5)cc4)cnc23)ccn1 [Cpd C]
beta-cell replication with A10 relative to the uninhibited controls ([1]; Cpd C 10 μM): decrease

Nc1ncnc2c1ncn2[C@@H]1O[C@H](CO)[C@@H](O)[C@H]1O [adenosine]
effect on % PDX-1 and Ki-67 expressing cells (β-cell proliferation) ([1]; rat islets, adenosine 0.05-1000 uM): little effect; also recorded: no effect

Exendin-4 [Ex-4]
increase of β-cell replication [1]: ~1.5 fold

Glucagon-like peptide-1 [GLP-1]
increase of β-cell replication [1]: ~1.5 fold
